Experiments:
[1] = test system: melanoma xenograft; test: melanoma xenograft study in non-obese diabetic-severe combined immunodeficiency mice; format: in vivo; settings: 25 mg/kg
[2] = test system: melanoma, glioblastoma, TNBC, ovarian cancer, and lung cancer; test: syngeneic and human xenograft mouse tumor models, primary tumor growth; format: in vivo
[3] = test system: ApoE; test: ApoE gene expression induction in hPBMCs; format: cell-based, human; settings: compared to control cells
[4] = test system: tumor growth; test: tumor growth studies, minimum efficacious dose and exposure; format: in vivo
[5] = molecular target: human ether-n-go-go-related gene (hERG) channel (Homo sapiens, UniProt Q12809); test: in vitro hERG assay; format: cell-based
[6] = neurobehavioral functional observation battery (FOB) and respiratory evaluations in rats; format: in vivo
[7] = oral PK study in CD-1 mice; format: in vivo
[8] = oral PK study in Cynomolgus monkeys; format: in vivo; settings: cynomolgus monkey, plasma
[9] = molecular target: 1A1 (Homo sapiens, UniProt P04798); test: in vitro CYP450 inhibition; format: in vitro ADME
[10] = molecular target: 2C19 (Homo sapiens, UniProt P33261); test: in vitro CYP450 inhibition; format: in vitro ADME
[11] = molecular target: 2D6 (Homo sapiens, UniProt P10635); test: in vitro CYP450 inhibition; format: in vitro ADME
[12] = molecular target: 3A4 (Homo sapiens, UniProt P08684); test: in vitro CYP450 inhibition; format: in vitro ADME
[13] = test system: CYP2B6; test: CYP induction in primary cultures of cryopreserved hepatocytes; format: in vitro ADME
[14] = molecular target: P-glucoprotein (P-gp) (Homo sapiens, UniProt P08183); test: efflux transporter inhibition in vitro; format: in vitro ADME
[15] = molecular target: BCRP (Homo sapiens, UniProt Q9UNQ0); test: efflux transporter inhibition in vitro; format: in vitro ADME; settings: read-out: inhibition of BCRP transport
[16] = molecular target: OATP1B3 (Homo sapiens, UniProt Q9NPD5); test: uptake transporter inhibition in vitro; format: in vitro ADME
[17] = molecular target: OAT3 (Homo sapiens, UniProt Q8TCC7); test: transporter inhibition in vitro; format: in vitro ADME
[18] = single agent therapy in subjects, toxicities; format: in vivo
[19] = Example 1: adverse event profile of full and reduced regimens with docetaxel; format: in vivo
Experimental: Protocol: Three subjects was administered Regimen 1 (Full): 35 mg/m^2 of docetaxel on days 1, 8, and 15 of every 28-day cycle and 80 mg of 2-[3-[(3R)-3-[[2-chloro-3-(trifluoromethyl)phenyl]methyl-(2,2-diphenylethyl)amino]butoxy]phenyl]acetic acid twice per day daily throughout treatment. Seven subjects was administered Regimen 2 (Reduced): 28 mg/m^2 of docetaxel on days 1, 8, and 15 of every 28-day cycle and 80 mg of 2-[3-[(3R)-3-[[2-chloro-3-(trifluoromethyl)phenyl]methyl-(2,2-diphenylethyl)amino]butoxy]phenyl]acetic acid twice per day for five continuous days followed by a 2 day rest period throughout treatment. One subject that was administered Regimen 2 received 35 mg/m^2 of docetaxel on days 1 and 80 mg of 2-[3-[(3R)-3-[[2-chloro-3-(trifluoromethyl)phenyl]methyl-(2,2-diphenylethyl)amino]butoxy]phenyl]acetic acid twice per day for the first seven days of treatment prior to switching to the reduced treatment schedule for the remainder of the 28-day cycle.

[20] = test system: Xenograft A549; test: Example 2: Xenograft A549 mice, tumor volume; format: in vivo
Experimental: Protocol: Five groups of Xenograft A549 mice were treated and tumor volume tracked for twenty-two days. Group 01 was administered 0.9% Saline, 0 mg/kg cisplatin, Corn Oil, and 0 mg/kg 2-[3-[(3R)-3-[[2-chloro-3-(trifluoromethyl)phenyl]methyl-(2,2-diphenylethyl)amino]butoxy]phenyl]acetic acid; Group 02 was administered 2 mg/kg Cisplatin, Corn Oil, and 0 mg/kg 2-[3-[(3R)-3-[[2-chloro-3-(trifluoromethyl)phenyl]methyl-(2,2-diphenylethyl)amino]butoxy]phenyl]acetic acid; Group 03 was administered 0.9% Saline, 0 mg/kg cisplatin, and 50 mg/kg 2-[3-[(3R)-3-[[2-chloro-3-(trifluoromethyl)phenyl]methyl-(2,2-diphenylethyl)amino]butoxy]phenyl]acetic acid; Group 04 was administered 2 mg/kg cisplatin and 50 mg/kg 2-[3-[(3R)-3-[[2-chloro-3-(trifluoromethyl)phenyl]methyl-(2,2-diphenylethyl)amino]butoxy]phenyl]acetic acid twice per day daily for the entire treatment period; and Group 05 was administered 2 mg/kg cisplatin and 50 mg/kg 2-[3-[(3R)-3-[[2-chloro-3-(trifluoromethyl)phenyl]methyl-(2,2-diphenylethyl)amino]butoxy]phenyl]acetic acid twice per day for five continuous days followed by two days without for the entire treatment period.

[21] = Regimen 1 (Full): 80 mg twice per day daily + docetaxel 35 mg/m^2, 3 cycles
[22] = Regimen 2 (Reduced): 80 mg twice per day 5 days then 2 day rest + docetaxel 28 mg/m^2, 20 cycles

Chain of OAT3 (Q8TCC7 whole entry): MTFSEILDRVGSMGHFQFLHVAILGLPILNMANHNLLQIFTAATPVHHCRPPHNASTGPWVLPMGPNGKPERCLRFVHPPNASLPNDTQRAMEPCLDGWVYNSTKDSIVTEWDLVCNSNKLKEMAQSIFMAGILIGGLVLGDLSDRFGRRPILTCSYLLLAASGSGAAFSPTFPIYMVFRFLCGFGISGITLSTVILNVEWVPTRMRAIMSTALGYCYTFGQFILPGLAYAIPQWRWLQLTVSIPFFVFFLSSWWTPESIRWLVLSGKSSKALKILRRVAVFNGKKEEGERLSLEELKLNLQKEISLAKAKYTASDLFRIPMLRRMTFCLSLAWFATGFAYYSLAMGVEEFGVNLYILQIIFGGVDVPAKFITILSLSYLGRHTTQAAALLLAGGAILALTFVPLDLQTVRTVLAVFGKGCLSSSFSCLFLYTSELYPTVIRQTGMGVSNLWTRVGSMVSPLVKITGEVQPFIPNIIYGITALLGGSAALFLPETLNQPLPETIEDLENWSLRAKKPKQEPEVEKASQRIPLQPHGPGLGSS
Chain of human ether-n-go-go-related gene (hERG) channel (Q12809 whole entry): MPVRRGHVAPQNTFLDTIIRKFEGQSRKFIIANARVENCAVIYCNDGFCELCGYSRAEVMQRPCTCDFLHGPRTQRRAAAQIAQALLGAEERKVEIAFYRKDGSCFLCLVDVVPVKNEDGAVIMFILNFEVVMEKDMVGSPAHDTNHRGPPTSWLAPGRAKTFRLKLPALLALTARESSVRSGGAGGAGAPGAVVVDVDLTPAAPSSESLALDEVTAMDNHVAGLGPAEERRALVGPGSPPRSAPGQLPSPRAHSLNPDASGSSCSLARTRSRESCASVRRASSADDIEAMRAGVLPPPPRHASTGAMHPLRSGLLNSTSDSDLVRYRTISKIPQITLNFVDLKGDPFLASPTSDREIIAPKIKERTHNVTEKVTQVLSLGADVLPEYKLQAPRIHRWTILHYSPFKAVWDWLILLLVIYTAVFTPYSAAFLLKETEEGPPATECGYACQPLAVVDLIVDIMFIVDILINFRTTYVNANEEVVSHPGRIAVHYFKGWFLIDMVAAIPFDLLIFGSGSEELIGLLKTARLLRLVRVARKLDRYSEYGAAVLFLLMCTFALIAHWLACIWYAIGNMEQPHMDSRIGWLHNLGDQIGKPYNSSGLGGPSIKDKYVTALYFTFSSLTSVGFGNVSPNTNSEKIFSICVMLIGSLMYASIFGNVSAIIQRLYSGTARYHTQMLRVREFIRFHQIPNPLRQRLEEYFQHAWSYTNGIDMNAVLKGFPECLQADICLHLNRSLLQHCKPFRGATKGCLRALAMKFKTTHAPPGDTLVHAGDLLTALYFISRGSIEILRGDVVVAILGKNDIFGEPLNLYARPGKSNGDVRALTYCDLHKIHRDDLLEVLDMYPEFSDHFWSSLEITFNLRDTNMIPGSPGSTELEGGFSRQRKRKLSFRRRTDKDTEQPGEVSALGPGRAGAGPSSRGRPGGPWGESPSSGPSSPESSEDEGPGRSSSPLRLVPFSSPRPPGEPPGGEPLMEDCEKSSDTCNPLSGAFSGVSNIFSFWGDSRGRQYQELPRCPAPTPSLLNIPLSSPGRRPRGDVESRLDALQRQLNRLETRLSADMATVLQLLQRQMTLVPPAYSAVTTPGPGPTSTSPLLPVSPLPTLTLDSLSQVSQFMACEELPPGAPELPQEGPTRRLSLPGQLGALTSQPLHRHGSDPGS
Chain of 2C19 (P33261 whole entry): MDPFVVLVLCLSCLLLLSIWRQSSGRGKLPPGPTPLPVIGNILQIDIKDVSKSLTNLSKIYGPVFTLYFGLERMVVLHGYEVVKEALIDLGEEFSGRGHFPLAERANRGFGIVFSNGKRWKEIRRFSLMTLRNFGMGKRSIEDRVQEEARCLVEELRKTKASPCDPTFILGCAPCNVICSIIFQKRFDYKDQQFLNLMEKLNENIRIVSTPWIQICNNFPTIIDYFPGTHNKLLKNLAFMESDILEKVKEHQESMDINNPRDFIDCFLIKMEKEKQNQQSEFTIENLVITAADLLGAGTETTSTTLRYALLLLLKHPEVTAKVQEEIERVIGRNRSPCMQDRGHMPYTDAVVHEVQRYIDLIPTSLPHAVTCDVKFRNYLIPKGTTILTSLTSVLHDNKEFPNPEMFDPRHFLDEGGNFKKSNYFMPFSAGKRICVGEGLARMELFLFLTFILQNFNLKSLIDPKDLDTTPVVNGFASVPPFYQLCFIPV
Chain of 2D6 (P10635 whole entry): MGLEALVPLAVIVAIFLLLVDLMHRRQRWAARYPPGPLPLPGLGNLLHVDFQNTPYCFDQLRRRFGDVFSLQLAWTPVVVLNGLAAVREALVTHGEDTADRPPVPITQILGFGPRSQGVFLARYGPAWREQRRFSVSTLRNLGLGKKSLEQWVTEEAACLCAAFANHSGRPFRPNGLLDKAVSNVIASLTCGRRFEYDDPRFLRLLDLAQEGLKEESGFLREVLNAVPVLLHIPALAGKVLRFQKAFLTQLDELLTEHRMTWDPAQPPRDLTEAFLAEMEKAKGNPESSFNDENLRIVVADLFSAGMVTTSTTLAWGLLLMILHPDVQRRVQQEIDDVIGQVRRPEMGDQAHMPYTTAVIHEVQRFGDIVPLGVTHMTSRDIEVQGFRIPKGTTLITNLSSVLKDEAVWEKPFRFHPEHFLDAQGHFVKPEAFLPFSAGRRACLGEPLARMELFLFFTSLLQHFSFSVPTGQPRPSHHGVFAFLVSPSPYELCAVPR
Chain of OATP1B3 (Q9NPD5 whole entry): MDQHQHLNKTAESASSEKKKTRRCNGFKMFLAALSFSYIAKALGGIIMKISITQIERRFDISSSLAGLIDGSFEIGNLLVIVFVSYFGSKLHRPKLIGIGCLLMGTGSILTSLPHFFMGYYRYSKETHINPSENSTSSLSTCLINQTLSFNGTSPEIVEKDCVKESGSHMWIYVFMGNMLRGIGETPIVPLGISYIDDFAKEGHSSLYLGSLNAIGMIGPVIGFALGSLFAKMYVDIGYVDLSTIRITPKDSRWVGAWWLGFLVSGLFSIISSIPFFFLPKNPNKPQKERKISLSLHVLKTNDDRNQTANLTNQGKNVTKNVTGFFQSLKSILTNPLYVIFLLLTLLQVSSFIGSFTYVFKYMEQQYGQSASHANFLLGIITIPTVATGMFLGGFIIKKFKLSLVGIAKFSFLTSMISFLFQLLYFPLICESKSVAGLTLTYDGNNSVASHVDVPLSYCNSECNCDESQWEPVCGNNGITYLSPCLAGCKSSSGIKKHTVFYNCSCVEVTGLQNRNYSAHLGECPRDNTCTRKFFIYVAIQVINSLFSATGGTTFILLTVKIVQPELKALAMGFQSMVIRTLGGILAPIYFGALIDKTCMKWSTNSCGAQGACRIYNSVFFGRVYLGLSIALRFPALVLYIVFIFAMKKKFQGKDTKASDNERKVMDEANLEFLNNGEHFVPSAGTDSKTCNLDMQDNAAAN
Chain of BCRP (Q9UNQ0 whole entry, species assumed): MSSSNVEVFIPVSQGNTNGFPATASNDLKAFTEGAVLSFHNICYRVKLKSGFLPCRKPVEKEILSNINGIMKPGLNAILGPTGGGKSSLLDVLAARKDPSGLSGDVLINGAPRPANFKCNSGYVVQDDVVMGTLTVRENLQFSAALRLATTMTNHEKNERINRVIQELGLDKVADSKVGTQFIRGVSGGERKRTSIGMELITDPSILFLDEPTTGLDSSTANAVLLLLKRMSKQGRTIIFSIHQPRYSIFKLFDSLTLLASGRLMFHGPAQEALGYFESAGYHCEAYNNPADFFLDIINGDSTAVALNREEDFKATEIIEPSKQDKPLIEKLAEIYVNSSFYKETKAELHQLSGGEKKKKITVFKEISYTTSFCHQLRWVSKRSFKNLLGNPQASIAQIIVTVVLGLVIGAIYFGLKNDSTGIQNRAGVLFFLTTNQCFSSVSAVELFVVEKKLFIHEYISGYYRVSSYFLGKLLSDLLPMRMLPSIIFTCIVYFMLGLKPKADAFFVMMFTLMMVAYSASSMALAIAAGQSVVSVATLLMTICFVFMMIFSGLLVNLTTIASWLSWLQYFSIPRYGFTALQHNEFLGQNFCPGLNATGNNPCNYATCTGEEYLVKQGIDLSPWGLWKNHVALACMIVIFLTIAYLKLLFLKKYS
Chain of 1A1 (P04798 whole entry): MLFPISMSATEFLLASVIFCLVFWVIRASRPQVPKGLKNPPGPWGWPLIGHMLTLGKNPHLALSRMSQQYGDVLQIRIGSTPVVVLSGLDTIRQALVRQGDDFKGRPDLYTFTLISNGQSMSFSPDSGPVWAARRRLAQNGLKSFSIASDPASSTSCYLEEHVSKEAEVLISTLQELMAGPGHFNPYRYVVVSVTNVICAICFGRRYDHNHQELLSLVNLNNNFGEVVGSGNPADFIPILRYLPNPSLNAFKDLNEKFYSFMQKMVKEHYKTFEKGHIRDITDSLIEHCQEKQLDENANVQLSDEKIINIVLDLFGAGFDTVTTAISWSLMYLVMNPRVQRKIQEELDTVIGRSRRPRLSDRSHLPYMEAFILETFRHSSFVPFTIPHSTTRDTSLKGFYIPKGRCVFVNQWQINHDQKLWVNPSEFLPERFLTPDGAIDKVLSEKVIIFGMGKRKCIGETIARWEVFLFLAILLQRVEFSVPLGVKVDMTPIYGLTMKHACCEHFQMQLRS

C[C@H](CCOc1cccc(CC(=O)O)c1)N(Cc1cccc(C(F)(F)F)c1Cl)CC(c1ccccc1)c1ccccc1 [2-[3-[(3R)-3-[[2-chloro-3-(trifluoromethyl)phenyl]methyl-(2,2-diphenylethyl)amino]butoxy]phenyl]acetic acid]
growth of the xenograft [1]: significantly inhibited growth of the xenograft
anti-tumor activity ([2]; animal models of glioblastoma, triple negative breast cancer (TNBC) and lung cancer): demonstrated
inhibition of primary tumor growth ([2]; extent varied with model): 48-95%
ApoE gene expression induction [3]: up to 40 fold
exposures at minimum efficacious doses ([4]; 25-40 mg/kg/day PO): 10,000-50,000 ng-h/mL
minimum efficacious doses ([4]; administered orally (PO)): 25 to 40 mg/kg/day
hERG channel conductance [5]: significant increase, but not inhibition
neurobehavioral FOB or respiratory evaluations [6]: no adverse effects were noted
half-life ([7]; CD-1, mouse, plasma, po, mice, read-out: mean apparent oral half-life (t½)): 6.5 to 8 h
Tmax ([7]; both sexes, mouse, plasma, po, CD-1 mice, males and females, read-out: time to maximum plasma concentration (Tmax)): 2 to 8 h
food effect: plasma concentrations higher in the fed state ([7]; mice, fed state): > 2 fold
bioavailability ([7]; mouse, plasma, CD-1 mice, oral, read-out: absolute oral bioavailability (% F)): > 100%
Tmax ([8]; oral dose): 4 h
bioavailability ([8]; po, depending on dose and formulation, read-out: mean % F): 6 to 19%
half-life ([8]; po, read-out: mean oral t½): 5.5 to 8 h
inhibition of 1A1 [9]: very weakly inhibited
inhibition of 2C19 [10]: very weakly inhibited
inhibition of 2D6 [11]: very weakly inhibited
inhibition of 3A4 [12]: very weakly inhibited
CYP2B6 induction ([13]; 1 concentration in ⅓ donors): > 2 fold
potential to induce CYP2B6 ([13]; cryopreserved hepatocytes): cannot be ruled out
inhibition of P-gp [14]: does not inhibit
inhibition at 5 µM [15]: 55%
IC50 [16]: 3.7 µM
inhibition at 50 µM [17]: < 50%
dose-limiting toxicity (DLT) ([18]; single agent therapy): DLT of Grade 4 neutropenia
hyperlipidemia in treated subjects ([18]; subjects treated): hyperlipidemia has been observed
Decreased white blood cell count (All grades), AE/Cycle % [19, 21]: 67%
Neutropenia (All grades), AE/Cycle % [19, 21]: 67%
Decreased white blood cell count (All grades), number of AEs ([19]; Regimen 1 (Full): 80 mg twice per day daily + docetaxel 35 mg/m^2, 3 subjects, 3 cycles): 2
Neutropenia (All grades), number of AEs ([19]; Regimen 1 (Full): 80 mg twice per day daily + docetaxel 35 mg/m^2 days 1, 8, 15 of 28-day cycle, 3 subjects, 3 cycles): 2
Decreased white blood cell count (All grades), number of AEs ([19]; Regimen 2 (Reduced): 80 mg twice per day 5 days then 2 day rest + docetaxel 28 mg/m^2, 7 subjects, 20 cycles): 4
Decreased white blood cell count (All grades), AE/Cycle % [19, 22]: 20%
Neutropenia (All grades), AE/Cycle % [19, 22]: 5%
Neutropenia (All grades), number of AEs ([19]; Regimen 2 (Reduced): 80 mg twice per day 5 days then 2 day rest + docetaxel 28 mg/m^2 days 1, 8, 15, 7 subjects, 20 cycles): 1
adverse event in one Regimen 2 subject ([19]; one subject: docetaxel 35 mg/m^2 day 1 and 80 mg twice per day first seven days, then reduced schedule): grade 1 white blood cell decrease
mean tumor volume ([20]; Group 03: 50 mg/kg, 0.9% saline, 0 mg/kg cisplatin, day 0): 86.36
mean tumor volume ([20]; Group 03: 50 mg/kg, 0.9% saline, 0 mg/kg cisplatin, day 3): 98.82
mean tumor volume ([20]; Group 03: 50 mg/kg, 0.9% saline, 0 mg/kg cisplatin, day 6): 125.97
mean tumor volume ([20]; Group 03: 50 mg/kg, 0.9% saline, 0 mg/kg cisplatin, day 9): 232.26
mean tumor volume ([20]; Group 03: 50 mg/kg, 0.9% saline, 0 mg/kg cisplatin, day 12): 354.70
mean tumor volume ([20]; Group 03: 50 mg/kg, 0.9% saline, 0 mg/kg cisplatin, day 15): 507.62
mean tumor volume ([20]; Group 03: 50 mg/kg, 0.9% saline, 0 mg/kg cisplatin, day 19): 1053.57
mean tumor volume ([20]; Group 03: 50 mg/kg, 0.9% saline, 0 mg/kg cisplatin, day 22): 1151.02
mean tumor volume ([20]; Group 04: 50 mg/kg twice per day daily + 2 mg/kg cisplatin, day 0, in mm³ (unit assumed)): 86.71
mean tumor volume ([20]; Group 04: 50 mg/kg twice per day daily + 2 mg/kg cisplatin, day 3): 94.50
mean tumor volume ([20]; Group 04: 50 mg/kg twice per day daily + 2 mg/kg cisplatin, day 6): 111.80
mean tumor volume ([20]; Group 04: 50 mg/kg twice per day daily + 2 mg/kg cisplatin, day 9, in mm³ (unit assumed)): 214.76
mean tumor volume ([20]; Group 04: 50 mg/kg twice per day daily + 2 mg/kg cisplatin, day 12, in mm³ (unit assumed)): 315.64
mean tumor volume ([20]; Group 04: 50 mg/kg twice per day daily + 2 mg/kg cisplatin, day 15, in mm³ (unit assumed)): 315.55
mean tumor volume ([20]; Group 04: 50 mg/kg twice per day daily + 2 mg/kg cisplatin, day 19): 748.19
mean tumor volume ([20]; Group 04: 50 mg/kg twice per day daily + 2 mg/kg cisplatin, day 22): 875.67
mean tumor volume ([20]; Group 05: 50 mg/kg twice per day five days then two days without + 2 mg/kg cisplatin, day 0, in mm³ (unit assumed)): 86.32
mean tumor volume ([20]; Group 05: 50 mg/kg twice per day five days then two days without + 2 mg/kg cisplatin, day 3): 97.27
mean tumor volume ([20]; Group 05: 50 mg/kg twice per day five days then two days without + 2 mg/kg cisplatin, day 6): 129.15
mean tumor volume ([20]; Group 05: 50 mg/kg twice per day five days then two days without + 2 mg/kg cisplatin, day 9, in mm³ (unit assumed)): 212.99
mean tumor volume ([20]; Group 05: 50 mg/kg twice per day five days then two days without + 2 mg/kg cisplatin, day 12, in mm³ (unit assumed)): 334.58
mean tumor volume ([20]; Group 05: 50 mg/kg twice per day five days then two days without + 2 mg/kg cisplatin, day 15, in mm³ (unit assumed)): 345.20
mean tumor volume ([20]; Group 05: 50 mg/kg twice per day five days then two days without + 2 mg/kg cisplatin, day 19): 680.16
mean tumor volume ([20]; Group 05: 50 mg/kg twice per day five days then two days without + 2 mg/kg cisplatin, day 22): 830.27
